Results: the NIST ThermoML archive (doi:10.1021/je049556i)

Assays:
[1] = 101 kPa, Liquid
[2] = xn = mol fraction of the nth substance listed; details: 101 kPa, Liquid

CCCO [propan-1-ol]
[1]
Details	mass density [kg/m3]	viscosity [mPa·s]
298.15 K	799.6	1.943
303.15 K	794.64	1.725
308.15 K	790.53	1.537

CC1OC(C)OC(C)O1 (configuration not stated) [2,4,6-trimethyl-1,3,5-trioxane]
[1]
Details	mass density [kg/m3]	viscosity [mPa·s]
298.15 K	988.35	1.107
303.15 K	982.64	1.001
308.15 K	976.44	0.907

CCO [ethanol] + CC1OC(C)OC(C)O1
[2], x2 = 0
Details	mass density [kg/m3]	viscosity [mPa·s]
298.15 K	785.06	1.083
303.15 K	780.74	0.99
308.15 K	776.48	0.895

CC1OC(C)OC(C)O1 (configuration not stated) [2,4,6-trimethyl-1,3,5-trioxane] + CCCCO
[2]
Details	mass density, 298.15 K [kg/m3]	mass density, 303.15 K [kg/m3]	mass density, 308.15 K [kg/m3]	viscosity, 298.15 K [mPa·s]	viscosity, 303.15 K [mPa·s]	viscosity, 308.15 K [mPa·s]
x1 = 0.0289	814.71	810.8	806.91	2.46	2.164	1.917
x1 = 0.0582	823.46	819.5	815.51	2.311	2.037	1.809
x1 = 0.0804	829.94	825.93	821.87	2.204	1.948	1.732
x1 = 0.0999	835.53	831.47	827.35	2.116	1.873	1.668
x1 = 0.194	861.02	856.78	852.47	1.756	1.568	1.406
x1 = 0.3007	886.93	882.65	878.35	1.471	1.324	1.197
x1 = 0.4056	909.58	905	900.34	1.302	1.177	1.07
x1 = 0.5091	928.91	924.2	919.2	1.219	1.103	1.006
x1 = 0.6218	946.67	941.75	936.55	1.193	1.077	0.983
x1 = 0.6932	956.21	951.23	945.98	1.193	1.075	0.98
x1 = 0.8331	972.07	966.65	960.87	1.184	1.064	0.969
x1 = 0.9165	980.1	974.5	968.65	1.143	1.03	0.938
x1 = 1	988.35	982.64	976.44	1.107	1.001	0.907

CCCO [propan-1-ol] + CC1OC(C)OC(C)O1
[2], x2 = 0
Details	mass density [kg/m3]	viscosity [mPa·s]
298.15 K	799.6	1.943
303.15 K	794.64	1.725
308.15 K	790.53	1.537
